In patent US6790869B2, “Resveratrol analogs for prevention of disease” (Rutgers, The State University of New Jersey, priority 1999, dated 2004):

Assays:
W138 cells [1] = assay: Morphological changes in cells; type: cell-based, human; conditions: normal W138 cells
Excerpt: In addition to inhibition of cell growth, treatment of W138 and W138VA cells with analogs led to morphological changes in the cells. Treatment of W138 cells with resveratrol and its analogs R-1 and R-3 led to elongation of normal W138 cells. Methoxy analogs such as MR-0 and MR-3 caused the flattening of W138 cells.

W138VA cells = assay: Apoptosis assay, fluorescent labeling of fragmented DNA; type: cell-based, human
Excerpt: (§1) The effect of the analogs on apoptosis was also examined. Apoptosis is characterized by nuclear DNA fragmentation that is mediated through a variety of signal transduction pathways. An assay was used that relies on fluorescent labeling of fragmented DNA.

W138 cells [2] = assay: as above; type: cell-based, human
Excerpt: as §1

[3] = test system: SV40-transformed W138 cells (W138VA); assay: Cell proliferation assay, viable cells counted by trypan blue dye exclusion; type: cell-based, human; conditions: at the concentration in parentheses after the analog; 5 days in culture
Experimental: (§2) Initial tests examined the potential cancer preventive activity of the analogs. Resveratrol and its analogs were evaluated in W138 and SV40 transformed W138VA cells and in preneoplastic 184-B5/HER and neoplastic SK-BR-3 human mammary epithelial cells. Cell proliferation, apoptosis, and gene expression studies were conducted using standard methodologies.
(§3) W138 human diploid fibroblasts and cancerous SV40-transformed W138 cells (W138VA) were used in a cell proliferation assay. Growth rate and viability of these cells was determined following addition of each analog. Doses tested ranged from 50 ng to 300 μg per ml or 1 μM to 100 μM concentrations in culture media. Cell cultures were grown for 5 days in the presence of the various doses of analogs. Growth rate was measured by counting viable cells using the trypan blue dye exclusion method. Resveratrol inhibited cell growth at low concentrations, less than 10 μM. […] MR-1 was not active as an inhibitor of cell growth even at doses as high as 100 μM.

W138 and W138VA cells = assay: Cell proliferation assay, result not separated by cell line; type: cell-based, human
Experimental: as §2, §3

[4] = test system: W138 human diploid fibroblasts; assay: Cell proliferation assay, viable cells counted by trypan blue dye exclusion; type: cell-based; conditions: at the concentration in parentheses after the analog; 5 days in culture
Experimental: as §2, §3

Oc1ccc(C=Cc2cc(O)c(O)c(O)c2)cc1 [Analog R-3, 3,4,4′,5-tetrahydroxystilbene]
morphological change of cells (W138 cells [1]): elongation | induction of apoptosis (W138VA cells): induced apoptosis | induction of apoptosis (W138 cells [2]): not in W138 cells | Growth Rate in Cells Following Exposure to Resveratrol Analogs, W138VA Cells [3]: + (>60% growth inhibition) | fold less effective than resveratrol in inhibiting cell growth (W138 and W138VA cells; relative to resveratrol): 10 fold | effective concentration for growth inhibition (W138 and W138VA cells; value in parentheses in Table 1, W138 / W138VA cells, 5 days): R3 (10 μM) | Growth Rate in Cells Following Exposure to Resveratrol Analogs, W138 Cells [4]: + (>60% growth inhibition)
